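Compound exposure: 48 hours, 5 concentrations, 96-well plates. At the TGI there is no net growth.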
Columns and labels:
Experiment in all cases: NCI anticancer screen, dose series, 48 h
NCI-H23 lung = system: NCI-H23 lung
HL-60(TB) leukemia = system: HL-60(TB) leukemia
UACC-257 melanoma = system: UACC-257 melanoma
CAKI-1 renal = system: CAKI-1 renal
UO-31 renal = system: UO-31 renal
SR leukemia = system: SR leukemia
SF-539 CNS = system: SF-539 CNS
SF-295 CNS = system: SF-295 CNS
SK-MEL-2 melanoma = system: SK-MEL-2 melanoma
HT29 colon = system: HT29 colon
OVCAR-5 ovarian = system: OVCAR-5 ovarian
M14 melanoma = system: M14 melanoma
U251 CNS = system: U251 CNS
OVCAR-8 ovarian = system: OVCAR-8 ovarian
NCI/ADR-RES ovarian = system: NCI/ADR-RES ovarian
SNB-75 CNS = system: SNB-75 CNS
HCT-15 colon = system: HCT-15 colon
TK-10 renal = system: TK-10 renal
SK-MEL-28 melanoma = system: SK-MEL-28 melanoma
CCRF-CEM leukemia = system: CCRF-CEM leukemia
MDA-N = system: MDA-N
MCF7 breast = system: MCF7 breast
BT-549 breast = system: BT-549 breast
NCI-H522 lung = system: NCI-H522 lung
RPMI-8226 leukemia = system: RPMI-8226 leukemia
SF-268 CNS = system: SF-268 CNS
SNB-19 CNS = system: SNB-19 CNS
COLO 205 colon = system: COLO 205 colon
HOP-62 NSCLC = system: HOP-62 NSCLC
MOLT-4 leukemia = system: MOLT-4 leukemia
HCT-116 colon = system: HCT-116 colon
MDA-MB-231 breast = system: MDA-MB-231 breast
A498 renal = system: A498 renal
T-47D breast = system: T-47D breast
OVCAR-3 ovarian = system: OVCAR-3 ovarian
HS 578T breast = system: HS 578T breast
SN12C renal = system: SN12C renal
KM12 colon = system: KM12 colon
PC-3 prostate = system: PC-3 prostate
SK-OV-3 ovarian = system: SK-OV-3 ovarian
UACC-62 melanoma = system: UACC-62 melanoma
IGROV1 ovarian = system: IGROV1 ovarian
DU-145 prostate = system: DU-145 prostate
LOX IMVI melanoma = system: LOX IMVI melanoma
SW-620 colon = system: SW-620 colon
OVCAR-4 ovarian = system: OVCAR-4 ovarian
ACHN renal = system: ACHN renal
MALME-3M melanoma = system: MALME-3M melanoma
786-0 renal = system: 786-0 renal
SK-MEL-5 melanoma = system: SK-MEL-5 melanoma
A549 NSCLC = system: A549 NSCLC
NCI-H226 lung = system: NCI-H226 lung
MDA-MB-435 = system: MDA-MB-435
EKVX NSCLC = system: EKVX NSCLC
K-562 leukemia = system: K-562 leukemia
RXF 393 renal = system: RXF 393 renal
NCI-H460 lung = system: NCI-H460 lung
HOP-92 NSCLC = system: HOP-92 NSCLC

CC(=O)OCC(=O)[C@@]12OC(C)(C)O[C@@H]1C[C@H]1[C@@H]3CC=C4C[C@@H](O)CC[C@]4(C)[C@H]3CC[C@@]12C
TGI (NCI-H23 lung): > 100 µM | TGI (HL-60(TB) leukemia): > 100 µM | TGI (UACC-257 melanoma): > 100 µM | TGI (CAKI-1 renal): > 100 µM | TGI (UO-31 renal): > 100 µM | TGI (SR leukemia): > 100 µM | TGI (SF-539 CNS): 74.7 µM | TGI (SF-295 CNS): > 100 µM | TGI (SK-MEL-2 melanoma): > 100 µM | TGI (HT29 colon): > 100 µM | TGI (OVCAR-5 ovarian): > 100 µM | TGI (M14 melanoma): > 100 µM | TGI (U251 CNS): > 100 µM | TGI (OVCAR-8 ovarian): > 100 µM | TGI (NCI/ADR-RES ovarian): > 100 µM | TGI (SNB-75 CNS): 29.4 µM | TGI (HCT-15 colon): > 100 µM | TGI (TK-10 renal): > 100 µM | TGI (SK-MEL-28 melanoma): > 100 µM | TGI (CCRF-CEM leukemia): > 100 µM | TGI (MDA-N): > 100 µM | TGI (MCF7 breast): > 100 µM | TGI (BT-549 breast): 96.4 µM | TGI (NCI-H522 lung): > 100 µM | TGI (RPMI-8226 leukemia): > 100 µM | TGI (SF-268 CNS): > 100 µM | TGI (SNB-19 CNS): > 100 µM | TGI (COLO 205 colon): > 100 µM | TGI (HOP-62 NSCLC): > 100 µM | TGI (MOLT-4 leukemia): > 100 µM | TGI (HCT-116 colon): > 100 µM | TGI (MDA-MB-231 breast): > 100 µM | TGI (A498 renal): > 100 µM | TGI (T-47D breast): > 100 µM | TGI (OVCAR-3 ovarian): > 100 µM | TGI (HS 578T breast): 63.4 µM | TGI (SN12C renal): > 100 µM | TGI (KM12 colon): > 100 µM | TGI (PC-3 prostate): > 100 µM | TGI (SK-OV-3 ovarian): > 100 µM | TGI (UACC-62 melanoma): > 100 µM | TGI (IGROV1 ovarian): > 100 µM | TGI (DU-145 prostate): > 100 µM | TGI (LOX IMVI melanoma): > 100 µM | TGI (SW-620 colon): > 100 µM | TGI (OVCAR-4 ovarian): > 100 µM | TGI (ACHN renal): > 100 µM | TGI (MALME-3M melanoma): > 100 µM | TGI (786-0 renal): > 100 µM | TGI (SK-MEL-5 melanoma): > 100 µM | TGI (A549 NSCLC): > 100 µM | TGI (NCI-H226 lung): > 100 µM | TGI (MDA-MB-435): > 100 µM | TGI (EKVX NSCLC): > 100 µM | TGI (K-562 leukemia): > 100 µM | TGI (RXF 393 renal): 61.4 µM

CN(C)CCCN1c2ccccc2C(C)(C)c2ccccc21
TGI (NCI-H23 lung): 30.4 µM | TGI (HL-60(TB) leukemia): 33.6 µM | TGI (UACC-257 melanoma): 23.9 µM | TGI (CAKI-1 renal): 25.5 µM | TGI (UO-31 renal): 27.4 µM | TGI (SR leukemia): 27.1 µM | TGI (SF-539 CNS): 28.4 µM | TGI (SF-295 CNS): 32.9 µM | TGI (SK-MEL-2 melanoma): 30.1 µM | TGI (HT29 colon): 24 µM | TGI (OVCAR-5 ovarian): 27.2 µM | TGI (M14 melanoma): 28.8 µM | TGI (U251 CNS): 24.9 µM | TGI (OVCAR-8 ovarian): 29.8 µM | TGI (NCI/ADR-RES ovarian): 31.8 µM | TGI (SNB-75 CNS): 24.4 µM | TGI (HCT-15 colon): 29.8 µM | TGI (TK-10 renal): 27.2 µM | TGI (SK-MEL-28 melanoma): 31.4 µM | TGI (CCRF-CEM leukemia): 53.5 µM | TGI (MDA-N): 27.6 µM | TGI (MCF7 breast): 28 µM | TGI (BT-549 breast): 28.1 µM | TGI (NCI-H522 lung): 28.6 µM | TGI (NCI-H460 lung): 26.4 µM | TGI (RPMI-8226 leukemia): 28.5 µM | TGI (SF-268 CNS): 27.2 µM | TGI (SNB-19 CNS): 28.8 µM | TGI (COLO 205 colon): 27.8 µM | TGI (HOP-62 NSCLC): 31.5 µM | TGI (MOLT-4 leukemia): 26.6 µM | TGI (HCT-116 colon): 27.9 µM | TGI (MDA-MB-231 breast): 27.8 µM | TGI (A498 renal): 23 µM | TGI (T-47D breast): 38.7 µM | TGI (OVCAR-3 ovarian): 28.9 µM | TGI (HS 578T breast): 43.3 µM | TGI (SN12C renal): 27.9 µM | TGI (KM12 colon): 28.3 µM | TGI (PC-3 prostate): 26.6 µM | TGI (HOP-92 NSCLC): 31.6 µM | TGI (SK-OV-3 ovarian): 29.1 µM | TGI (UACC-62 melanoma): 25.8 µM | TGI (IGROV1 ovarian): 31.7 µM | TGI (DU-145 prostate): 31.2 µM | TGI (LOX IMVI melanoma): 28.4 µM | TGI (SW-620 colon): 52.4 µM | TGI (OVCAR-4 ovarian): 28.2 µM | TGI (ACHN renal): 28.6 µM | TGI (MALME-3M melanoma): 31 µM | TGI (786-0 renal): 27.7 µM | TGI (SK-MEL-5 melanoma): 26.2 µM | TGI (A549 NSCLC): 30.7 µM | TGI (NCI-H226 lung): 29.7 µM | TGI (MDA-MB-435): 27.4 µM | TGI (EKVX NSCLC): 32.6 µM | TGI (K-562 leukemia): 27.1 µM | TGI (RXF 393 renal): 26.8 µM

Reference: PubChem BioAssay (NCI)
